Tests used:
[1] = test system: NF-κB; assay: NF-κB activation assay in LPS stimulated CellSensor NF-κB-bla THP-1 reporter cells (FRET); type: cell-based, human; settings: THP-1 CellSensor NF-κB-bla reporter cells, LPS 10 ng/ml, 5 h and 16 h
Experimental: The CellSensor® NF-κB-bla THP-1 cell line has a stably integrated ß-lactamase reporter gene under the control of the nuclear factor kappa B (NF-κB) response element. […] In the presence of ß-lactamase, CCF4 was enzymatically cleaved and excitation at 409 nm produced a blue fluorescence signal (at 450 nm). The CellSensor® NF-κB-bla THP-1 cells were dispersed in 96-well plates (5 × 10^4 cells/200 µL/well) and incubated for 4 h. […] After incubation, the ß-lactamase substrate mixture (prepared according to the manufacturer’s protocol) was added to each well. Plates were incubated at room temperature in the dark for 2 h. Fluorescence was measured on a Tecan Infinite M200 plate reader (Tecan, Mannedorf, Switzerland) at an excitation wavelength of 405 nm and emission wavelengths of 465 and 535 nm. Emission ratios are calculated by dividing values from emission wavelength of 465 nm by those from emission wavelength of 535 nm. The response ratio was calculated as follows [(emission ratio of a test well)/average emission ratio of wells with vehicle (0.5% DMSO)] and values were normalized to the LPS control treated wells [response ratio of the compound/response ratio of LPS].

[2] = test system: THP-1 cells; assay: TNF stimulated CXCL8 release by THP-1 cells (ELISA); type: cell-based; settings: Homo sapiens, TNF 2 ng/ml, overnight, single agents (Figure 5A), read-out: IC50 for TNF stimulated CXCL8 release (titration experiment with DEX)
Experimental: THP-1 cells (10^5 cells/200 µL/well) and RA FLS (10^4/200 µL/well) were plated in 96 well plates and pre-treated with compound or vehicle for 1 h and then stimulated with either LPS (10 ng/ml), IL-1ß (2 ng/ml) or TNF (2 ng/ml for THP-1 and 1 ng/ml for RA FLS). After 18 h of incubation, supernatants were collected and the levels of cytokines and chemokines in the culture supernatants were measured by ELISA according to the manufacturer’s protocols (R&D systems, Minneapolis, MN).
Drug synergy analysis was performed using Isobologram plots which were calculated according to reported procedures using methods of Chou-Talalay ([Chou and Talalay, 1984]) to compute IC50 and determine synergism. IC50 is computed from the median effect equation. Synergism analysis is carried out using the Combination index (CI)-isobol method. Data analysis was performed using the CompuSyn software available on combisyn.com. Detailed methodology was used as described in a prior report ([Chou, 2006]). […] This is followed by CI-isobol method to quantitatively assess the synergism between these inhibitor drugs. […] From the median effect equation, the estimated dose (i.e., D) necessary to produce the inhibition (i.e. Fa, Fu) obtained by the combination was calculated. […]

## C[C@@H]1C[C@H]2[C@@H]3CCC4=CC(=O)C=C[C@]4(C)[C@@]3(F)[C@@H](O)C[C@]2(C)[C@@]1(O)C(=O)CO [DEX, dexamethasone]
[1]
  Inhibition of LPS induced NF-κB activity: inhibited NF-κB activity more potently at 16 h than 5 h
[2]
  IC50: 300 nM

## NC(=O)Nc1sc(-c2ccc(F)cc2)cc1C(N)=O [UTC, 5-(4-fluorophenyl)-2-ureidothiophene-3 carboxylic acid amide]
[1]
  Inhibition of LPS induced NF-κB activity: inhibited NF-κB activity at both time points
